Laboratory results published in patent US20200024573A1, “CHEMICAL DIFFERENTIATION OF PLURIPOTENT STEM CELLS INTO RETINAL EPITHELIAL CELLS” (International Stem Cell Corporation, priority 2014, published 2020).

Tested on: retinal epithelial progenitor cells
Experiment: Derivation of retinal pigmented epithelium from hPSCs in 3D culture
Assay type: cell-based, human
Conditions: hPSC 3D cultures, N2/B27 medium containing Chir99021 (3 μM) for 15 days, after 12 days SB431542, IWR-1, DMH-1, Y-27632
Procedure: hPSCs cells growing under feeder-free culture conditions were dissociated with Accutase and grown in suspension in Ultra-low 6 well plates, with N2/B27 medium (DMEM/F12 with GlutaMAX, 1× N2/B27 Supplement) plus SB431542 (10 μM), IWR-1 (3 μM), DMH-1 (2 μM), and Y-27632 (10 μM) for 12 days (FIGS. 1A-1C) to generate retinal epithelial progenitor cells. After 12 days, to differentiate the retinal epithelial progenitor cells into retinal pigmented epithelium into RPEs, hPSC 3D cultures were switch into N2/B27 medium containing Chir99021 (3 μM) for 15 days (FIGS. 1A-1C and 2). […] Derivation of RPEs was confirmed by immunohistochemistry for RPE specific protein expression (MITF, ZO-1, Best-1 and Melanosome) and by RT-PCR gene analysis for RPE specific gene markers ([…], BEST1 OTX2, RLBP1, RPE65 and SERINF1) (FIGS. 3 and 4). FACS analysis was performed to determine the percentage of cells positive for RPE specific proteins MITF, Mel and BEST (FIGS. 5A-5C).

Cc1c[nH]c(-c2cnc(NCCNc3ccc(C#N)cn3)nc2-c2ccc(Cl)cc2Cl)n1 [Chir99021]
maturation/pigmentation of retinal epithelial progenitor cells: promotes the maturation/pigmentation of retinal epithelial progenitor cells
